Measured values reported in patent publication US10413505B1, “Pharmaceutical compositions and methods of using the same” (priority 2017, dated 2019).

Legend:
[1] = Example 3 plasma pharmacokinetics, normal hepatic function vs hepatic impairment
[2] = Example 2 plasma pharmacokinetics, normal renal function vs severe renal impairment; conditions: all samples in all individuals except four samples in one subject; Example 2
[3] = plasma, subjects with hepatic impairment, single intranasal dose

## COC(=O)[C@H]1[C@@H](OC(=O)c2ccccc2)C[C@@H]2CC[C@H]1N2 [norcocaine]
[1]; all subjects with normal hepatic function, all time points
  plasma concentration (not measurable, below LLOQ): < 0.1 ng/mL
[1]; multiple time points in three Grade B impaired subjects
  plasma concentration, low levels detected: ≤ 0.31 ng/mL
[1]; [3]
  AUC0→t (Geometric mean): 0.753 ng·h/mL
  AUC0→t (Mean): 0.950 ng·h/mL
  AUC0→t (Median): 0.788 ng·h/mL
  Clast (Geometric mean): 0.126 ng/mL
  Clast (Mean): 0.127 ng/mL
  Clast (Median): 0.126 ng/mL
  Cmax (Geometric mean): 0.219 ng/mL
  Cmax (Mean): 0.227 ng/mL
  Cmax (Median): 0.212 ng/mL
  Tlast (Geometric mean): 5.24 h
  Tlast (Mean): 6.33 h
  Tlast (Median): 4.00 h
  Tmax (Geometric mean): 1.50 h
  Tmax (Mean): 1.50 h
  Tmax (Median): 1.50 h
  t1/2 (Geometric mean): 5.07 h
  t1/2 (Mean): 6.23 h
  t1/2 (Median): 6.23 h
[1]; single time point (7 min) in one Grade B subject
  plasma concentration: 0.354 ng/mL
[2]
  plasma concentration (below the LLOQ): < 0.1 ng/mL
